Assay results: ChEMBL document CHEMBL3585283, “Synthesis and evaluation of a series of quinolinyl trans-cyanostilbene analogs as anticancer agents” (2014)
Calls of active or inactive are those of the source. No cut-off for these calls is given here.

Tests used:
UO-31 = test: Antitumor activity against human UO31 cells after 48 hrs; assay type: functional; settings: UO-31, 48 h
HCT-15 = test: Antitumor activity against human HCT15 cells after 48 hrs; assay type: functional; settings: HCT-15, 48 h
SW-620 = test: Antitumor activity against human SW620 cells after 48 hrs; assay type: functional
NCI-H522 = test: Antitumor activity against human NCI-H522 cells after 48 hrs; assay type: functional; settings: NCI-H522, 48 h
[1] = Antitumor activity against human RPMI8226 cells after 48 hrs; assay type: functional; settings: RPMI-8226, 48 h
[2] = Antitumor activity against human LOXIMVI cells after 48 hrs; assay type: functional; settings: LOX IMVI
[3] = Antitumor activity against human NCI-ADR-RES cells after 48 hrs; assay type: functional
[4] = Antitumor activity against human RXF393 cells after 48 hrs; assay type: functional; settings: RXF 393, 48 h
[5] = Antitumor activity against human SF539 cells after 48 hrs; assay type: functional; settings: SF-539, 48 h
[6] = Antitumor activity against human COLO205 cells after 48 hrs; assay type: functional; settings: COLO 205, 48 h
TK-10 = test: Antitumor activity against human TK10 cells after 48 hrs; assay type: functional; settings: TK-10, 48 h
OVCAR-4 = test: Antitumor activity against human OVCAR4 cells after 48 hrs; assay type: functional; settings: OVCAR-4, 48 h
SK-MEL-2 = test: Antitumor activity against human SK-MEL-2 cells after 48 hrs; assay type: functional; settings: SK-MEL-2, 48 h
NCI-H226 = test: Antitumor activity against human NCI-H226 cells after 48 hrs; assay type: functional; settings: NCI-H226, 48 h
A549 = test: Antitumor activity against human A549 cells after 48 hrs; assay type: functional; settings: A549, 48 h
NCI-H460 = test: Antitumor activity against human NCI-H460 cells after 48 hrs; assay type: functional; settings: NCI-H460, 48 h
MDA-MB-435 = test: Antitumor activity against human MDA-MB-435 cells after 48 hrs; assay type: functional; settings: MDA-MB-435, 48 h
Malme-3M = test: Antitumor activity against human MALME-3M cells after 48 hrs; assay type: functional
SN12C = test: Antitumor activity against human SN12C cells after 48 hrs; assay type: functional
MDA-MB-468 = test: Antitumor activity against human MDA-MB-468 cells after 48 hrs; assay type: functional; settings: MDA-MB-468, 48 h
[7] = Antitumor activity against human HCC2998 cells after 48 hrs; assay type: functional; settings: HCC 2998, 48 h
[8] = Antitumor activity against human MOLT4 cells after 48 hrs; assay type: functional; settings: MOLT-4, 48 h
PC-3 = test: Antitumor activity against human PC3 cells after 48 hrs; assay type: functional; settings: PC-3, 48 h
OVCAR-8 = test: Antitumor activity against human OVCAR8 cells after 48 hrs; assay type: functional; settings: OVCAR-8, 48 h
MCF7 = test: Antitumor activity against human MCF7 cells after 48 hrs; assay type: functional; settings: MCF7, 48 h
NCI-H322M = test: Antitumor activity against human NCI-H322M cells after 48 hrs; assay type: functional
M14 = test: Antitumor activity against human M14 cells after 48 hrs; assay type: functional; settings: M14, 48 h
K562 = test: Antitumor activity against human K562 cells after 48 hrs; assay type: functional; settings: K562, 48 h
CAKI-1 = test: Antitumor activity against human Caki1 cells after 48 hrs; assay type: functional; settings: CAKI-1, 48 h
DU-145 = test: Antitumor activity against human DU145 cells after 48 hrs; assay type: functional; settings: DU-145, 48 h
[9] = Antitumor activity against human BT549 cells after 48 hrs; assay type: functional; settings: BT-549, 48 h
UACC-62 = test: Antitumor activity against human UACC62 cells after 48 hrs; assay type: functional; settings: UACC-62, 48 h
786-0 = test: Antitumor activity against human 786-0 cells after 48 hrs; assay type: functional; settings: 786-0, 48 h
HOP-62 = test: Antitumor activity against human HOP62 cells after 48 hrs; assay type: functional; settings: HOP-62, 48 h
ACHN = test: Antitumor activity against human ACHN cells after 48 hrs; assay type: functional
SR = test: Antitumor activity against human SR cells after 48 hrs; assay type: functional
SF-268 = test: Antitumor activity against human SF268 cells after 48 hrs; assay type: functional; settings: SF-268, 48 h
CCRF-CEM = test: Antitumor activity against human CCRF-CEM cells after 48 hrs; assay type: functional
SK-MEL-5 = test: Antitumor activity against human SK-MEL-5 cells after 48 hrs; assay type: functional; settings: SK-MEL-5, 48 h
[10] = Antitumor activity against human HOP92 cells after 48 hrs; assay type: functional; settings: HOP-92, 48 h
[11] = Antitumor activity against human Hs578T cells after 48 hrs; assay type: functional; settings: Hs-578T
HCT-116 = test: Antitumor activity against human HCT116 cells after 48 hrs; assay type: functional; settings: HCT-116, 48 h
SNB-75 = test: Antitumor activity against human SNB75 cells after 48 hrs; assay type: functional; settings: SNB-75, 48 h
MDA-MB-231 = test: Antitumor activity against human MDA-MB-231 cells after 48 hrs; assay type: functional; settings: MDA-MB-231, 48 h
NCI-H23 = test: Antitumor activity against human NCI-H23 cells after 48 hrs; assay type: functional; settings: NCI-H23, 48 h
[12] = Antitumor activity against human SF295 cells after 48 hrs; assay type: functional; settings: SF-295, 48 h
U-251 = test: Antitumor activity against human U251 cells after 48 hrs; assay type: functional; settings: U-251, 48 h
HL-60(TB) = test: Antitumor activity against human HL-60(TB) cells after 48 hrs; assay type: functional; settings: HL-60, 48 h
KM12 = test: Antitumor activity against human KM12 cells after 48 hrs; assay type: functional; settings: KM12, 48 h
SK-MEL-28 = test: Antitumor activity against human SK-MEL-28 cells after 48 hrs; assay type: functional; settings: SK-MEL-28, 48 h
A498 = test: Antitumor activity against human A498 cells after 48 hrs; assay type: functional; settings: A498, 48 h
IGROV-1 = test: Antitumor activity against human IGROV1 cells after 48 hrs; assay type: functional; settings: IGROV-1, 48 h
SNB-19 = test: Antitumor activity against human SNB19 cells after 48 hrs; assay type: functional; settings: SNB-19, 48 h
HT-29 = test: Antitumor activity against human HT-29 cells after 48 hrs; assay type: functional; settings: HT-29, 48 h
SK-OV-3 = test: Antitumor activity against human SKOV3 cells after 48 hrs; assay type: functional; settings: SK-OV-3, 48 h
T47D = test: Antitumor activity against human T47D cells after 48 hrs; assay type: functional
OVCAR-3 = test: Antitumor activity against human OVCAR3 cells after 48 hrs; assay type: functional; settings: OVCAR-3, 48 h
OVCAR-5 = test: Antitumor activity against human OVCAR5 cells after 48 hrs; assay type: functional; settings: OVCAR-5, 48 h
EKVX = test: Antitumor activity against human EKVX cells after 48 hrs; assay type: functional, cell-based
UACC-257 = test: Antitumor activity against human UACC257 cells after 48 hrs; assay type: functional; settings: UACC-257, 48 h

In the case of `COc1cc(/C(C#N)=C/c2cnc3ccccc3c2)cc(OC)c1OC`, the GI50 (UO-31) is reported as 580 nM, the GI50 (HCT-15) is reported as 1080 nM and the GI50 (SW-620) is reported as “inactive”. It also gave a GI50 (NCI-H522) of 299 nM, a GI50 [1] of 2060 nM and a GI50 [2] of 645 nM. The GI50 [3] was 343 nM, the GI50 [4] was 579 nM and the GI50 [5] was 361 nM. The GI50 [6] was 374 nM, the GI50 (TK-10) was 2550 nM and the GI50 (OVCAR-4) was 13800 nM. For the same compound, the GI50 (SK-MEL-2) was 1050 nM, the GI50 (NCI-H226) was > 100000 nM and the GI50 (A549) was 680 nM. The GI50 (NCI-H460) was 2050 nM, the GI50 (MDA-MB-435) was 227 nM and the GI50 (Malme-3M) was 691 nM. It also gave a GI50 (SN12C) of 1940 nM, a GI50 (MDA-MB-468) of 870 nM and a GI50 [7] of 2010 nM. It also gave a GI50 [8] of 3200 nM, a GI50 (PC-3) of 1080 nM and a GI50 (OVCAR-8) of 3410 nM. The GI50 (MCF7) was 429 nM, the GI50 (NCI-H322M) was 27400 nM and the GI50 (M14) was 540 nM. For the same compound, the GI50 (K562) was 444 nM, the GI50 (CAKI-1) was 346 nM and the GI50 (DU-145) was 1510 nM. It also gave a GI50 [9] of 1430 nM, a GI50 (UACC-62) of 478 nM and a GI50 (786-0) of 6290 nM. It also gave a GI50 (HOP-62) of 10300 nM, a GI50 (ACHN) of 911 nM and a GI50 (SR) of 569 nM. The GI50 (SF-268) was 9170 nM, the GI50 (CCRF-CEM) was 1380 nM and the GI50 (SK-MEL-5) was 410 nM. The GI50 [10] was 403 nM, the GI50 [11] was 1310 nM and the GI50 (HCT-116) was 464 nM. It also gave a GI50 (SNB-75) of 1490 nM, a GI50 (MDA-MB-231) of 2830 nM and a GI50 (NCI-H23) of 2930 nM. For the same compound, the GI50 [12] was 556 nM, the GI50 (U-251) was 1700 nM and the GI50 (HL-60(TB)) was 329 nM. For the same compound, the GI50 (KM12) was 436 nM, the GI50 (SK-MEL-28) was 3270 nM and the GI50 (A498) was 678 nM. For the same compound, the GI50 (IGROV-1) was 3150 nM, the GI50 (SNB-19) was 5230 nM and the GI50 (HT-29) was 421 nM. It also gave a GI50 (SK-OV-3) of 1340 nM, a GI50 (T47D) of 9540 nM and a GI50 (OVCAR-3) of 263 nM. For the same compound, the GI50 (OVCAR-5) was 3940 nM and the GI50 (EKVX) was “inactive”.

In the case of `COc1cc(/C(C#N)=C/c2ccc3ccccc3n2)cc(OC)c1OC`, the GI50 (UO-31) is reported as 762 nM, the GI50 (HCT-15) is reported as 319 nM and the GI50 (SW-620; SW-620, 48 h) is reported as 164 nM. The GI50 (NCI-H522) was 37.2 nM, the GI50 [1] was 297 nM and the GI50 [2] was 766 nM. The GI50 [3] was 112 nM, the GI50 [4] was 271 nM and the GI50 [5] was 197 nM. For the same compound, the GI50 [6] was 198 nM, the GI50 (UACC-257) was 761 nM and the GI50 (TK-10) was 4690 nM. For the same compound, the GI50 (OVCAR-4) was 1430 nM, the GI50 (SK-MEL-2) was 483 nM and the GI50 (NCI-H226) was 4780 nM. The GI50 (A549) was 375 nM, the GI50 (NCI-H460) was 361 nM and the GI50 (MDA-MB-435) was 33 nM. The GI50 (Malme-3M) was “inactive”, the GI50 (SN12C) was 627 nM and the GI50 (MDA-MB-468) was 243 nM. For the same compound, the GI50 [7] was 610 nM, the GI50 [8] was 488 nM and the GI50 (PC-3) was 348 nM. It also gave a GI50 (OVCAR-8) of 446 nM, a GI50 (MCF7) of 275 nM and a GI50 (NCI-H322M) of 718 nM. The GI50 (M14) was 173 nM, the GI50 (K562) was 80 nM and the GI50 (CAKI-1) was 68 nM. For the same compound, the GI50 (DU-145) was 446 nM, the GI50 [9] was 315 nM and the GI50 (UACC-62) was 92 nM. The GI50 (786-0) was 445 nM, the GI50 (HOP-62) was 567 nM and the GI50 (ACHN) was 1040 nM. The GI50 (SR) was “inactive”, the GI50 (SF-268) was 835 nM and the GI50 (CCRF-CEM) was 248 nM. For the same compound, the GI50 (SK-MEL-5) was 243 nM, the GI50 [10] was 736 nM and the GI50 [11] was 689 nM. It also gave a GI50 (HCT-116) of 234 nM, a GI50 (SNB-75) of 182 nM and a GI50 (MDA-MB-231) of 943 nM. It also gave a GI50 (NCI-H23) of 751 nM, a GI50 [12] of 277 nM and a GI50 (U-251) of 355 nM. It also gave a GI50 (HL-60(TB)) of 223 nM, a GI50 (KM12) of 350 nM and a GI50 (SK-MEL-28) of 518 nM. For the same compound, the GI50 (A498) was 295 nM, the GI50 (IGROV-1) was 846 nM and the GI50 (SNB-19) was 578 nM. For the same compound, the GI50 (HT-29) was 240 nM, the GI50 (SK-OV-3) was 524 nM and the GI50 (T47D) was 4760 nM. The GI50 (OVCAR-3) was 163 nM, the GI50 (OVCAR-5) was 580 nM and the GI50 (EKVX) was “inactive”.
